In one experiment the test system is caspase-3/7. Kind of experiment: Caspase 3/7 assay in cancer cells. Type of experiment: cell-based. The protocol:
Caspase 3/7 Assay: The Amplite™ Fluorimetric Caspase3/7 assay kit (AAT Bioquest, Sunnyvale, Calif.) was used per the manufacturer's instructions. Briefly, a fluorometric indicator, Ac-DEVD-AMC, was used to determine caspase activity. […] Cells were seeded at 60,000 cells/well in a 96 well plate and treated with compound for the indicated period of time. Diluted caspase 3/7 assay solution was added to each well and incubated at room temperature for 2 hours protected from light, upon which time fluorescence was measured on the Victor X2 plate reader (Perkin Elmer, Waltham, Mass.).

Experiment [1] deals with Hsp70i, Hsc70, Grp78, Grp75, Hsp90. Put plainly: Elution of HEK 293T cell lysate proteins from the ATP resin (silver stain, Western blot). Type of experiment: binding. The conditions noted are these: Western blot. As for the experimental part: (§1) FLECS Screen: A pEGFP-tagged Hsp70i was (plasmid 15215, Addgene, Cambridge, Mass.) used in the FLECS assay and was originally cloned according to [Zeng et al. (2004). Hsp70 dynamics in vivo: effect of heat shock and protein aggregation. Journal of cell science 117, 4991-5000]. ATP used in the assay was purchased from Sigma (St. Louis, Mo.) and a 200 mM stock was prepared with low salt buffer (150 mM NaCl, 25 mM Tris, pH 7.5, 60 mM MgCl2). The γ-phosphate ATP sepharose was synthesized as previously described and stored in low salt buffer [Haystead et al. (1993). Gamma-phosphate-linked ATP-sepharose for the affinity purification of protein kinases. Rapid purification to homogeneity of skeletal muscle mitogen-activated protein kinase kinase. European journal of biochemistry/FEBS 214, 459-467]. FuGENE 6 transfection reagent (Roche, Mannheim, Germany) was used for transfection of GFP-Hsp70i into HEK 293T cells, following the manufacturer protocol. The transfection ensued for 48 hours, upon which time the cells were harvested and lysed in cell lysis buffer (150 mM NaCl, 50 mM Tris, pH 7.5, 1% Triton X-100, 1 mM EDTA, 1 mM DTT, and 1 tablet Complete Mini protease inhibitor (Roche)). Cell lysates were stored at −80° C. until further use. Upon binding the resin lysates were washed 3× with high stringency wash buffer (1 M NaCl, 25 mM Tris, pH 7.5, 60 mM MgCl2, 1 mM DTT) and 3× with low stringency wash buffer (150 mM NaCl, 25 mM Tris, pH 7.5, 60 mM MgCl2, 1 mM DTT). Next the lysates were transferred to 0.2 μm PVDF filter 96-well plate (Corning, Corning, N.Y.) sitting on top of a black flat-bottomed 96-well catch plate (Corning). […]
(§2) HS-72 specifically targets Hsp70i over other members of the Hsp70 superfamily. […] To more thoroughly determine the specificity of HS-72 for Hsp70i, the HEK 293T eluates were also analyzed for other Hsp70 family members Hsc70, Grp78, and Grp75, as well as Hsp90 by Western blot. […] The linker on the resin was cleaved using sodium dithionite and the samples were subjected to SDS-PAGE and analyzed by Western blot, silver stain, and mass spectrometry. […]

The target of experiment [2] is T1, Hsp70i, Hsc70, Grp78, Grp75, Hsp90 (Homo sapiens, UniProt P0DMV8).
T1 construct: endogenous in cells; host or cells: HEK 293T
The experiment is described as above. Type of experiment: binding. The conditions noted are these: few non-specific eluted proteins. As for the experimental part:
as §1, §2

The target of the next experiment is Hsp70i (Homo sapiens, UniProt P0DMV8). Kind of experiment: HS-72 affinity resin pull-down from HEK293T lysate, Hsp70i. The arrangement: endogenous in cells; host or cells: HEK 293T. The conditions noted are these: free HS-72 incubated with lysate. Type of experiment: binding. As for the experimental part: HS-72 specifically targets Hsp70i over other members of the Hsp70 superfamily. To test the selectivity of the HS-72 scaffold against the broader purinome, HEK 293T cell extracts or pig bladder tissue lysates were applied to the ATP resin and eluted with HS-72, as described for FLECS. The eluates were characterized by SDS-PAGE, silver stain, and MS analysis. […] To more thoroughly determine the specificity of HS-72 for Hsp70i, the HEK 293T eluates were also analyzed for other Hsp70 family members Hsc70, Grp78, and Grp75, as well as Hsp90 by Western blot. […] Next, an affinity resin was synthesized using the HS-72 scaffold, similar to a previously described affinity resin targeting Hsp90 [Hughes et al. (2012). […] Bioorganic & medicinal chemistry 20, 3298-3305]. HEK 293T cell lysate was applied to the resin and subjected to several washes. To confirm selectivity of the HS-72 affinity resin for Hsp70i, free HS-72 was incubated with lysate to inhibit Hsp70i binding to the affinity resin. The linker on the resin was cleaved using sodium dithionite and the samples were subjected to SDS-PAGE and analyzed by Western blot, silver stain, and mass spectrometry. […] These studies identified HS-72 as the first example of a small molecule that can selectively discriminate Hsp70i from other members of the Hsp70 superfamily.

Another experiment deals with T2, GFP-Hsp70i (Homo sapiens, UniProt P0DMV8).
T2 construct: host or cells: HEK 293T
Put plainly: FLECS elution of GFP-Hsp70i from γ-phosphate-linked ATP resin. It counts as binding. Conditions: compared with HS-71. The protocol:
as §1, with “DTT).” for “DTT). Next the lysates were transferred to 0.2 μm PVDF filter 96-well plate (Corning, Corning, N.Y.) sitting on top of a black flat-bottomed 96-well catch plate (Corning).”
Assembly of a focused library, consisting of 3379 purine like compounds, was described previously [Carlson et al. (2013). Fluorescence Linked Enzyme Chemoproteomic Strategy for Discovery of a Potent and Selective DAPK1 and ZIPK Inhibitor. […] The lysates were eluted from the filter plate onto a catch plate by centrifugation and the fluorescence of the eluates was measured. […] Next, the presence of GFP-Hsp70i in the eluates from the 197 primary hits was determined by Western blot. […]

T1 sequence (P0DMV8 2-641): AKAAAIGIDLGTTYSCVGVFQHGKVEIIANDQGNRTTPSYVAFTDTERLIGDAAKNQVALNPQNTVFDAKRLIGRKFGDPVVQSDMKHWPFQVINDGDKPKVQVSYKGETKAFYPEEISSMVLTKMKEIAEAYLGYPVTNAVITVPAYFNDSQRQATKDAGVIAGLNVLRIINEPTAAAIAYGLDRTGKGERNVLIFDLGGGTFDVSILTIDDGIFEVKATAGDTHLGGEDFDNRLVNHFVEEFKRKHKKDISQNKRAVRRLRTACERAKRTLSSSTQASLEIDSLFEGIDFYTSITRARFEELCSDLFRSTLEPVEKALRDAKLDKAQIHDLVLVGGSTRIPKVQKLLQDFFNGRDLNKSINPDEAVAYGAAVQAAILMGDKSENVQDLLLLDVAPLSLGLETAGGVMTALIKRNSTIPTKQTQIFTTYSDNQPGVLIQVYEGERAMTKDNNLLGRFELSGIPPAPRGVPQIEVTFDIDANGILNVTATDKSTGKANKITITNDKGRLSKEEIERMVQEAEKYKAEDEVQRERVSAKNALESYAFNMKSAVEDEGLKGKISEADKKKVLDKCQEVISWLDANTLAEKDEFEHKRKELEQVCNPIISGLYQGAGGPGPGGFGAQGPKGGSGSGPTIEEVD
T2 sequence (P0DMV8 whole entry): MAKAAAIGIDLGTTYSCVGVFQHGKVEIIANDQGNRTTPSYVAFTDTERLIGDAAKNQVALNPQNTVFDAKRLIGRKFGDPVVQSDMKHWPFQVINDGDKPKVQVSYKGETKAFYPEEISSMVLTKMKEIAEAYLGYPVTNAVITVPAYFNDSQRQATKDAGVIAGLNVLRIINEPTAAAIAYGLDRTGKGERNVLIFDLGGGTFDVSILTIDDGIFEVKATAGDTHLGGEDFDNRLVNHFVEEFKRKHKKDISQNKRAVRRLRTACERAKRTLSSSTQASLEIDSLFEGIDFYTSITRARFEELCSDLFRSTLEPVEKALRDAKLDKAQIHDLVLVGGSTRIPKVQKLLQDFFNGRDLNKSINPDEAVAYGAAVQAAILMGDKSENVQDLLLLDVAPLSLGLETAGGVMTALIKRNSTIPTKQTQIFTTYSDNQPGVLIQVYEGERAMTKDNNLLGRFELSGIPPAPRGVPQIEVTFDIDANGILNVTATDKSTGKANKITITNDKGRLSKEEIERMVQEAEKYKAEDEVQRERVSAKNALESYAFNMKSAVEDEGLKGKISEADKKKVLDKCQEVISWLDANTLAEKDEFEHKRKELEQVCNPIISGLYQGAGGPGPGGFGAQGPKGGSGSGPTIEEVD
Sequence of Hsp70i (P0DMV8 whole entry): as above

`CCCn1c(NC(=O)[C@H]2CCCN(c3cnccn3)C2)nc2ccccc21` [HS-72, (S)—N-(1-propyl-1H-benzo[d]imidazol-2-yl)-1-(pyrazin-2-yl)piperidine-3-carboxamide]: the caspase activation entry with caspase-3/7 (6 hours and 24 hours, dose dependent) is “reproducible across several cancer cell lines”; in the experiment on caspase-3/7 (various cancer cells) it was “inducing caspase activation in a dose dependent manner”. Further, the “Hsp70 family members and Hsp90 eluted from the ATP resin” value in experiment [1] is “only inducible Hsp70 was eluted”. For the same molecule, the “elution of Hsp70 from ATP resin” value in experiment [2] was “elutes Hsp70”. Also, the “competition of Hsp70i binding to the affinity resin by free compound” value at Hsp70i is given as “able to block this interaction”. In addition, the “elution of GFP-Hsp70 from the ATP resin, S vs. R enantiomer” value at GFP-Hsp70i was “more effective”.
